Test results published in EP0583821A1, “Atriopeptins, guanylate cyclase activators, and phosphodiesterase inhibitors as treatment for glaucoma, hydrocephalus and cerebral edema (cranial fluid volume dysfunction)” (THE GENERAL HOSPITAL CORPORATION, priority 1987, dated 1988).

Target: T1, guanylate cyclase (Oryctolagus cuniculus, UniProt G1TXB5)
T1 sequence (G1TXB5 28-1056): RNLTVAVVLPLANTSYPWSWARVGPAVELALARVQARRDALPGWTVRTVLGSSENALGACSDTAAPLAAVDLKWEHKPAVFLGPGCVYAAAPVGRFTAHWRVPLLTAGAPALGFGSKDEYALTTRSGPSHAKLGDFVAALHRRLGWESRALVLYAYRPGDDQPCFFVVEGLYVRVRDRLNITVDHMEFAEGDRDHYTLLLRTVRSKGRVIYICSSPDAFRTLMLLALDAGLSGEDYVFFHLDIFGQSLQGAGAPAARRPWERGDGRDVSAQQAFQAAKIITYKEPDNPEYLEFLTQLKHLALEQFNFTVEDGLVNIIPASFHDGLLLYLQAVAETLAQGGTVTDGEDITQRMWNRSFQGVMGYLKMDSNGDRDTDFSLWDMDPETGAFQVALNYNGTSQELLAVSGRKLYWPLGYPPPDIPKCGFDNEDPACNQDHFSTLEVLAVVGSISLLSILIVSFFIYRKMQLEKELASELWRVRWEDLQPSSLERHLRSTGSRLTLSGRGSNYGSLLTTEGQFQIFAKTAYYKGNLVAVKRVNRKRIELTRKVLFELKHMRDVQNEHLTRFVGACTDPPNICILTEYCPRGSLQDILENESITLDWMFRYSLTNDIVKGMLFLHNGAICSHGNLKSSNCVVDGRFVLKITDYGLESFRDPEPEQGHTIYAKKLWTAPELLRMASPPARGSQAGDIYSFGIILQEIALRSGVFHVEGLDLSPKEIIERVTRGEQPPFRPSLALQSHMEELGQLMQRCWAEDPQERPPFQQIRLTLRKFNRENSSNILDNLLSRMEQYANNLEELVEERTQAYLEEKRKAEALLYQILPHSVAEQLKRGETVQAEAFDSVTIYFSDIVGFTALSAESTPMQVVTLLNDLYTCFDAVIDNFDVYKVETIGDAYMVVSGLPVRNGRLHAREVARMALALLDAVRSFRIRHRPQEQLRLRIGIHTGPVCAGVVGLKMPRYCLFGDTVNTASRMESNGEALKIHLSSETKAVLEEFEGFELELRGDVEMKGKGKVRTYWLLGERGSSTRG
Assay: rANP activation of guanylate cyclase in membrane fractions of whole choroid plexus
Type: biochemical, rabbit
Set-up: tissues were homogenized (10 mg wet weight per milliliter); from tissue; host or cells: rabbit cerebral microvessels, choroid plexus, kidney, ciliary process, pia-arachnoid, cerebellum; 100,000 g P1 pellet
Protocol: The effect of rANP on membrane-bound guanylate cyclase and adenylate cyclase activity in various brain-barrier tissues and tissue fractions from rabbit was compared with its activity in cerebrum and cerebellum. Guanylate cyclase was measured as the rate of cyclic GMP formation by modifications of the technique of Waldman et al., supra, incorporated herein by reference. Briefly, tissues were homogenized (10 mg wet weight per milliliter) in 50 mM tris-HCl, pH 8.0, 1 mM EDTA, 1 mM dithiothreitol, and 250 mM sucrose and centrifuged at 100,000g to obtain a P1 pellet. Reaction tubes contained (in 0.3 ml), 50 mM tris, pH 7.6, 6 mM MnCl₂, 0.5 mM 3-isobutyl, 1-methylxanthine (IBMX), 10 mM theophylline, 3 mM GTP, hormone (in 0.03 ml containing 2.5 mM ascorbic acid and 0.1% bovine serum albumin), and 0.06 ml of P1 fraction (40 to 60 ug of protein). The reaction (4 minutes at 30°C) was started by addition of GTP and terminated by addition of 0.3 ml of 150 mM sodium acetate (pH 4.0) and boiling for 3 minutes. Cyclic GMP formed was subsequently measured by radioimmunoassay as described in example 6, infra. Under these conditions, guanylate cyclase activity was linear with time and tissue concentration. Adenylate cyclase activity in P1 fractions was measured according to the method described by Nathanson, et al., Science; 204:843 (1979); Mol. Pharmacol. 18:199 (1980), see Figure 1C . […] Neurosci. Abstr., 10, 899 (1984); Nathanson, et al., Soc. Neurosci. Abstr., 12, 1257 (1986), incorporated herein by reference, but with a lower concentration (0.025%) of trypsin and a rotating tissue tumbler which allowed cleaner fractionation of epithelial cells from erythrocytes and vascular components.
Adenylate cyclase activity could be stimulated by isoproterenol through β-adrenergic receptors known to be present in this tissue. Values shown are the mean ± range for duplicate enzyme determinations, each assayed for cyclic AMP or cyclic GMP in triplicate. […]

| Substance | Vmax for stimulation of basal activity (choroid plexus, SEM, N = 5) | Ka for activation of the enzyme (whole choroid plexus, five separate experiments, SEM, 4 min) | stimulation of guanylate cyclase (choroid plexus) |
| --- | --- | --- | --- |
| Ser-Leu-Arg-Arg-atriopeptin III (APIII) [rANP 1-28] | 58% ± 16% | 9.8 ± 5.1 nM | – |
| rANP 13-28 (DRIGAQSGLGCNSFRY; Atrial natriuretic peptide; UniProt P01161 135-150, looked up, fragment) | – | – | almost no stimulation |
